Reference: US20200306254A1, “COMBINATION OF ERK1/2 INHIBITOR COMPOUND WITH GEMCITABINE OR WITH GEMCITABINE AND NAB-PACLITAXEL FOR USE IN TREATMENT OF PANCREATIC CANCER” (Eli Lilly and Company, priority 2016, published 2020)
Like-named read-outs stand apart in the source and are kept apart here.

Tests used:
[1] = system: KRAS mutant (G12V) Capan-2 pancreatic cancer xenograft; assay type: in vivo; details: for Delta T/C % or % Regression: Day 34, Compound A 50 mg/kg QD PO, gemcitabine 100 mg/kg once weekly IP; for Difference (Treatment 1 − Treatment 2), tumor growth: Treatment 1 = Vehicle QD x 28 PO, log10 tumor volume, Compound A 50 mpk QD x 28 PO, Gemcitabine 100 mpk Q7D x 4 IP; for inhibition of tumor growth: single agents vs vehicle control group, combination vs each single agent alone
Procedure: Human pancreatic cancer cell line Capan-2 (ATCC cat # HTB-80) are cultured in DMEM supplemented with 10% fetal bovine serum, sodium pyruvate, nonessential amino acids, L-glutamine, and penicillin-streptomycin (Invitrogen, Carlsbad, Calif.). All cultures are maintained in a humidified incubator at 37° C. under 5% CO2/95% air free off mycoplasma and pathogenic murine viruses. The cells are used for experiments at passages <7 after recovery from frozen stocks.
Female CB-17 SCID nude mice are ordered from Charles River Laboratories International, Inc. All animals are acclimated for one week before the use and are housed and maintained in specific pathogen-free conditions in accordance with the guidelines of the American Association for Laboratory Animal Care and all current regulations and standards of the U.S. Departments of Agriculture and of Health and Human Services and the NIH. The experiment protocol is approved by the Eli Lilly and Company Animal Care and Use Committee.
Logarithmically growing Capan-2 cells (5×10^6/200 μL, single-cell suspensions of over 95% viability in Hank's medium mixed with equal volume of Matrigel (Becton Dickinson & Co., San Jose, Calif.)) are subcutaneously injected into the flank of the mice. When the average tumor volume reaches about 200 to 300 mm^3 following tumor cell implantation, the animals are randomized into different groups (n=5). The animals are treated with vehicle control (1% HEC/0.25% TWEEN® 80/0.05% Antifoam, daily, orally), Compound A (50 mg/kg, QD, PO), gemcitabine (100 mg/kg, once weekly, intraperitoneal), and the combination for 4 weeks. Compound A was formulated in 1% HEC/0.25% TWEEN® 80/0.05% Anti foam and gemcitabine is formulated in phosphate buffered saline (lx). Tumor volume and body weight are measured twice weekly. Tumor volume is estimated by using the formula: v=l×w2×0.536 where l=larger of measured diameter and w=smaller of perpendicular diameter.
The statistical analysis of the tumor volume data begins with a data transformation to a log scale to equalize variance across time and treatment groups. The log volume data are analyzed with a two-way repeated measures analysis of variance by time and treatment using the MIXED procedures in SAS software (Version 9.3). The correlation model for the repeated measures is Spatial Power. Treated groups are compared to the control group at each time point. The MIXED procedure is also used separately for each treatment group to calculate adjusted means and standard errors at each time point. Both analyses account for the autocorrelation within each animal and the loss of data that occurs when animals with large tumors are removed from the study early. The adjusted means and standard errors (s.e.) are plotted for each treatment group versus time. Analysis for tumor volume is based on log10 and spatial power covariance structure. P value is based on the comparison between two specific groups.
First, the usual repeated measures model is fit to log volume versus group and time. Then contrast statements are used to test for an interaction effect at each time point using the 2 specific treatments that are combined. This is equivalent to the Bliss Independence method and assumes that tumor volumes can, in theory, reach zero, i.e., complete regression. The expected additive response (EAR) for the combination is calculated on the tumor volume scale as: response (EAR) EAR volume=V1*V2/V0, where V0, V1, and V2 are the estimated mean tumor volumes for the vehicle control, treatment 1 alone, and treatment 2 alone, respectively. If the interaction test is significant, the combination effect is declared statistically more than additive or less than additive depending on the observed combination mean volume being less than or more than the EAR volume, respectively. Otherwise, the statistical conclusion is additive. In addition, a biologically relevant range of additivity can be defined as X % above and below the EAR volume. Typically, X would be 25 to 40%. […]

[2] = system: ERK substrate (RSK) phosphorylation in HCT116 colorectal cancer cell line; experiment: ERK1/2 Cell Mechanistic Assay (pRSK1 Alphascreen Assay); assay type: cell-based; details: Homo sapiens, HCT-116, HCT116 cells, 2 h, n=8, read-out: IC50, ERK substrate (RSK) phosphorylation in tumor cells
Procedure: The purpose of this assay is to measure the ability of a compound to inhibit ERK signaling in cancer cells in vitro. Carry out the pRSK1 Alphascreen assay using the HCT116 colorectal cancer cell line (ATCC, # CCL-247). Routinely culture HCT116 cells in Dulbecco's Modified Eagle's Medium (DMEM) (Hyclone, # SH30022) growth medium containing 5%0/Fetal Bovine Serum (FBS) (Gibco, #16000-044) in T-150 flasks and incubate in a 5% CO2 incubator at 37° C. Harvest cells when they become confluent and freeze in freezing medium at 1×10e^7 cells/mL as “assay ready frozen cells” and store in liquid nitrogen. To run the assay, plate 40,000 HCT116 cells/well in a 96-well tissue culture plate and incubate at 37° C. in a 5% CO2 incubator overnight. Test compounds at 10 concentrations starting at a 20 μM top concentration and utilize a 1:3 dilution scheme (20 μM to 0.001 μM) with a final DMSO concentration of 0.5% (v/v). Add compounds in 20 μL serum free growth medium and incubate at 37° C. for two hours. Remove growth medium and add 50 μL of 1× lysis buffer [Cell Signaling Technology, #9803] containing 1× holt protease and […] inhibitor cocktail [Thermo, #78441] to each well and incubate at room temperature for 10 minutes on a shaker. […] Measure the fluorescence intensity in each well by reading the plates in ENVISION® (PerkinElmer) plate reader. […]

[3] = system: human pancreatic cancer cells MIA PaCa2 xenograft; experiment: Xenograft Tumor Model (MIA PaCa2); assay type: in vivo, female athymic nude mice; details: for Delta T/C % or Regression %: oral gavage, 14 days
Procedure: The purpose of this assay is to measure reduction in tumor volume in response to test compound administration. Expand human pancreatic cancer cells MIA PaCa2 (ATCC, # CRL1420) in culture, harvest and inject 5×10e^6 cells in 200 μL of 1:1 HBSS+matrigel solution subcutaneously on the rear right flank of female athymic nude mice (22-25 g, Harlan Laboratories). Measure tumor growth and body weight twice per week beginning the seventh day after the implantation. When tumor sizes reach 200-400 mm^3, randomize animals and group into groups of eight to ten animals. Prepare test compound in an appropriate vehicle (vehicle: […]/0.25% TWEEN® 80/0.05% Antifoam) and administer by oral gavage daily for 14 days. Tumor response is determined by tumor volume measurement performed twice a week during the course of treatment. Body weight is taken as a general measure of toxicity.
Regression % is calculated when the endpoint volume is below baseline. The formula is 100*(T−T0)/T0. Where T0 is the mean baseline tumor volume for the treated group. Grand mean of all groups from baseline (randomization) at day 20 used to compute % change of T/C.

Nc1ccn([C@@H]2O[C@H](CO)[C@@H](O)C2(F)F)c(=O)n1 [Gemcitabine, gemcitabine]
Delta T/C % or % Regression [1]: 24% | Delta T/C % or % Regression ([1]; listed as gemcitabine): 20% | Difference (Treatment 1 − Treatment 2), tumor growth [1]: 0.633 | inhibition of tumor growth [1]: partial inhibition of tumor growth

Cn1nccc1Nc1nccc(-c2cc3c(s2)C(C)(C)N(CCN2CCOCC2)C3=O)n1 [Compound A, 6,6-Dimethyl-2-{2-[(1-methyl-1H-pyrazol-5-yl)amino]pyrimidin-4-yl}-5-[2-(morpholin-4-yl)ethyl]-5,6-dihydro-4H-thieno[2,3-c]pyrrol-4-one]
IC50 [2]: 429 nM | Delta T/C % or Regression % ([3]; MIA PaCa2 xenograft, 25 mg/kg QD): 2% | Delta T/C % or Regression % ([3]; MIA PaCa2 xenograft, 50 mg/kg QD): −22% | Delta T/C % or Regression % ([3]; MIA PaCa2 xenograft, 100 mg/kg QD): −66% | Delta T/C % or Regression % ([3]; MIA PaCa-2 xenograft, 12.5 mg/kg QD): 32% | anti-tumor activity ([3]; human pancreatic cancer xenograft model (MIA PaCa2)): significant anti-tumor activity | Delta T/C % or % Regression [1]: 40% | Difference (Treatment 1 − Treatment 2), tumor growth [1]: 0.397 | inhibition of tumor growth [1]: partial inhibition of tumor growth
